“And” between values parts separate entries of the source, which are not always exact repeats. Identical values can stand only once. Inconclusive results and toxic doses are left out. Peptide text beside a SMILES is read from it. * marks the point of attachment. Bn = c1ccc(C*)cc1
System: BDF1 mice, B16 melanoma ip, median survival T/C
Experiment: NCI In Vivo Anticancer Drug Screen. Data for tumor model B16 Melanoma (intraperitoneal) in B6D2F1 (BDF1) mice
Details: endpoint: median survival time, higher = longer survival
Outline: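 Tumor-bearing mice received test compound or vehicle. Survival or tumor size was then measured in both groups. The treated-group figure was divided by the control-group figure.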

[1] = dose: 12.5 mg/kg/injection, schedule: Q01DX009 (ip), vehicle: saline
[2] = dose: 25.0 mg/kg/injection, schedule: Q01DX009 (ip), vehicle: saline
[3] = dose: 50.0 mg/kg/injection, schedule: Q01DX009 (ip), vehicle: saline
[4] = dose: 100.0 mg/kg/injection, schedule: Q01DX009 (ip), vehicle: saline
[5] = dose: 100.0 mg/kg/injection, schedule: Q01DX009 (ip), vehicle: Klucel (hydroxypropylcellulose) (HPC)
[6] = dose: 200.0 mg/kg/injection, schedule: Q01DX009 (ip), vehicle: Klucel (hydroxypropylcellulose) (HPC)
[7] = dose: 100.0 mg/kg/injection, schedule: Q01DX009 (ip), vehicle: saline with Tween-80
[8] = dose: 200.0 mg/kg/injection, schedule: Q01DX009 (ip), vehicle: saline with Tween-80
[9] = dose: 400.0 mg/kg/injection, schedule: Q01DX009 (ip), vehicle: saline with Tween-80
[10] = dose: 12.5 mg/kg/injection, schedule: Q01DX009 (ip), vehicle: Klucel (hydroxypropylcellulose) (HPC)
[11] = dose: 50.0 mg/kg/injection, schedule: Q01DX009 (ip), vehicle: Klucel (hydroxypropylcellulose) (HPC)
[12] = dose: 25.0 mg/kg/injection, schedule: Q01DX009 (ip), vehicle: Klucel (hydroxypropylcellulose) (HPC)

[O-]c1cc2c3c(c1)c1cc4c(cc1c[n+]3C=C2)OCO4
T/C (dose: 3.13 mg/kg/injection, schedule: Q01DX009 (ip), vehicle: water): 96 % of control | T/C (dose: 6.25 mg/kg/injection, schedule: Q01DX009 (ip), vehicle: water): 121 % of control | T/C (dose: 12.5 mg/kg/injection, schedule: Q01DX009 (ip), vehicle: water): 122 % of control | T/C (dose: 25.0 mg/kg/injection, schedule: Q01DX009 (ip), vehicle: water): 124 % of control | T/C (dose: 50.0 mg/kg/injection, schedule: Q01DX009 (ip), vehicle: water): 114 % of control

CC1(C)N=C(N)N=C(N)N1c1cccc(CCC(=O)Nc2ccc(S(=O)(=O)F)cc2)c1
T/C (dose: 30.0 mg/kg/injection, schedule: Q01DX009 (ip), vehicle: saline with Tween-80): 113 % of control | T/C (dose: 60.0 mg/kg/injection, schedule: Q01DX009 (ip), vehicle: saline with Tween-80): 123 % of control | T/C (dose: 120.0 mg/kg/injection, schedule: Q01DX009 (ip), vehicle: saline with Tween-80): 110 % of control

CNC(=O)Oc1cccn(C(=O)NC)c1=O
T/C [1]: 86 % of control | T/C [2]: 91 % of control and 93 % of control | T/C [3]: 87 % of control | T/C (dose: 75.0 mg/kg/injection, schedule: Q01DX009 (ip), vehicle: saline): 88 % of control | T/C [4]: 86 % of control

S=c1nc[nH]c2nc[nH]c12.[Ag]
T/C (dose: 300.0 mg/kg/injection, schedule: Q01DX009 (ip), vehicle: carboxymethylcellulose (CMC)): 118 % of control

CC(C)c1c[nH]c(=O)[nH]c1=O
T/C [5]: 100 % of control | T/C [6]: 92 % of control | T/C (dose: 400.0 mg/kg/injection, schedule: Q01DX009 (ip), vehicle: Klucel (hydroxypropylcellulose) (HPC)): 95 % of control

COC(=O)C(Br)C(Br)c1ccccc1 (configuration not stated)
T/C [7]: 90 % of control | T/C [8]: 90 % of control | T/C [9]: 90 % of control

N#CSc1ccc(S(N)(=O)=O)cc1
T/C (dose: 6.25 mg/kg/injection, schedule: Q01DX009 (ip), vehicle: Klucel (hydroxypropylcellulose) (HPC)): 100 % of control | T/C [10]: 103 % of control

CCCCCCCCSC1=C(Cl)C(=O)C(OC)=C(OC)C1=O
T/C (dose: 3.13 mg/kg/injection, schedule: Q01DX009 (ip), vehicle: saline with Tween-80): 88 % of control

O=C1CN(CN2CCOCC2)C(=O)CN1CN1CCOCC1
T/C [1]: 98 % of control | T/C [2]: 102 % of control | T/C [3]: 112 % of control | T/C [4]: 104 % of control | T/C (dose: 200.0 mg/kg/injection, schedule: Q01DX009 (ip), vehicle: saline): 101 % of control

CCCC1OC(/C=C/c2ccccc2)OCC1CC (configuration not stated)
T/C [7]: 110 % of control | T/C [8]: 110 % of control | T/C [9]: 98 % of control

CCOC(=O)C(C#N)N=O (configuration not stated)
T/C [3]: 111 % of control | T/C (dose: 50.0 mg/kg/injection, schedule: Q04DX003 (ip), vehicle: saline): 106 % of control | T/C (dose: 100.0 mg/kg/injection, schedule: Q04DX003 (ip), vehicle: saline): 113 % of control

CCOCCCN
T/C [3]: 122 % of control | T/C [4]: 122 % of control

Cc1ccc(C(=O)CCC(=O)O)c(C)c1
T/C [7]: 90 % of control | T/C [8]: 93 % of control

Cn1c(O)c(C=N)c(=O)n(C)c1=O
T/C (dose: 25.0 mg/kg/injection, schedule: Q01DX009 (ip), vehicle: other): 111 % of control | T/C (dose: 50.0 mg/kg/injection, schedule: Q01DX009 (ip), vehicle: other): 102 % of control

CC(SC(C)c1ccccc1)c1ccccc1 (configuration not stated)
T/C [7]: 101 % of control | T/C [8]: 99 % of control | T/C [9]: 88 % of control

Cc1ccc(-c2cc(-c3ccccc3)no2)cc1
T/C (dose: 100.0 mg/kg/injection, schedule: Q04DX003 (ip), vehicle: Klucel (hydroxypropylcellulose) (HPC)): 94 % of control | T/C (dose: 200.0 mg/kg/injection, schedule: Q04DX003 (ip), vehicle: Klucel (hydroxypropylcellulose) (HPC)): 100 % of control | T/C (dose: 400.0 mg/kg/injection, schedule: Q04DX003 (ip), vehicle: Klucel (hydroxypropylcellulose) (HPC)): 94 % of control

OC1COC(c2ccco2)OC1 (configuration not stated) (tested in a mixture with another compound)
T/C [11]: 100 % of control | T/C [5]: 100 % of control | T/C [6]: 106 % of control

COC(=O)C(CC(C)C)NC(=O)C(N)Cc1ccc(OCc2ccccc2)cc1 (configuration not stated) (H-Tyr(Bn)-Leu-OMe; configuration not given here)
T/C [10]: 110 % of control | T/C [12]: 96 % of control

Cc1cc2cc3c(C)cc(=O)oc3c(C)c2o1
T/C [7]: 119 % of control | T/C [8]: 117 % of control | T/C [9]: 100 % of control

O=C1c2ccc(Br)cc2-c2cc(Br)ccc21
T/C (dose: 25.0 mg/kg/injection, schedule: Q01DX009 (ip), vehicle: saline with Tween-80): 87 % of control | T/C [7]: 93 % of control

[Cl][Ni][Cl].[NH-]CCN1CC1.[NH-]CCN1CC1
T/C (dose: 0.78 mg/kg/injection, schedule: Q01DX009 (ip), vehicle: saline): 98 % of control | T/C (dose: 1.56 mg/kg/injection, schedule: Q01DX009 (ip), vehicle: saline): 97 % of control | T/C (dose: 3.12 mg/kg/injection, schedule: Q01DX009 (ip), vehicle: saline): 90 % of control

CC(C)CC(NC(=O)OCc1ccccc1)C(=O)O (configuration not stated)
T/C (dose: 100.0 mg/kg/injection, schedule: Q04DX003 (ip), vehicle: saline with Tween-80): 102 % of control | T/C [8]: 106 % of control | T/C [9]: 121 % of control

Cc1ccc(Oc2c3c(nc4ccccc24)CCCC3)cc1
T/C [7]: 110 % of control | T/C [8]: 107 % of control | T/C [9]: 92 % of control

O=c1[nH]cnc2nc(/N=N/SCCO)[nH]c12
T/C [12]: 100 % of control | T/C [11]: 103 % of control | T/C [5]: 101 % of control | T/C [6]: 98 % of control

CC(=O)NC1c2cc(Cl)ccc2-c2c(Cl)cc(Cl)cc21 (configuration not stated)
T/C [7]: 100 % of control | T/C [9]: 95 % of control | T/C (dose: 800.0 mg/kg/injection, schedule: Q01DX009 (ip), vehicle: saline with Tween-80): 86 % of control

CC(=O)NC1=C(N2CC2C)C(=O)C(NC(C)=O)=C(N2CC2C)C1=O (configuration not stated)
T/C (dose: 0.62 mg/kg/injection, schedule: Q01DX009 (ip), vehicle: saline): 89 % of control | T/C (dose: 1.25 mg/kg/injection, schedule: Q01DX009 (ip), vehicle: saline): 105 % of control

Nc1cc2c(c[n+](CCCCCCCC[n+]3cc4c5ccccc5c(N)cc4c4ccccc43)c3ccccc23)c2ccccc12
T/C (dose: 0.78 mg/kg/injection, schedule: Q01DX009 (ip), vehicle: distilled water + Tween-80): 120 % of control | T/C (dose: 1.25 mg/kg/injection, schedule: Q01DX009 (ip), vehicle: saline with Tween-80): 118 % of control | T/C (dose: 1.56 mg/kg/injection, schedule: Q04DX003 (ip), vehicle: distilled water + Tween-80): 114 % of control | T/C (dose: 2.5 mg/kg/injection, schedule: Q01DX009 (ip), vehicle: saline with Tween-80): 123 % of control | T/C (dose: 2.59 mg/kg/injection, schedule: Q01DX009 (ip), vehicle: distilled water + Tween-80): 156 % of control | T/C (dose: 3.12 mg/kg/injection, schedule: Q04DX003 (ip), vehicle: distilled water + Tween-80): 108 % of control | T/C (dose: 4.32 mg/kg/injection, schedule: Q01DX009 (ip), vehicle: distilled water + Tween-80): 167 % of control | T/C (dose: 6.25 mg/kg/injection, schedule: Q01DX009 (ip), vehicle: distilled water + Tween-80): 162 % of control | T/C (dose: 7.2 mg/kg/injection, schedule: Q01DX009 (ip), vehicle: distilled water + Tween-80): 180 % of control | T/C (dose: 10.0 mg/kg/injection, schedule: Q01DX009 (ip), vehicle: saline with Tween-80): 166 % of control | T/C (dose: 12.0 mg/kg/injection, schedule: Q01DX009 (ip), vehicle: distilled water + Tween-80): 182 % of control | T/C (dose: 12.5 mg/kg/injection, schedule: Q01DX009 (ip), vehicle: distilled water + Tween-80): 88 % of control | T/C (dose: 20.0 mg/kg/injection, schedule: Q01DX009 (ip), vehicle: saline with Tween-80): 160 % of control | T/C (dose: 25.0 mg/kg/injection, schedule: Q04DX003 (ip), vehicle: distilled water + Tween-80): 106 % of control

CNC(=O)CCCCC(=O)NC
T/C (dose: 50.0 mg/kg/injection, schedule: Q01DX009 (ip), vehicle: saline with Tween-80): 102 % of control | T/C [7]: 116 % of control | T/C [8]: 124 % of control | T/C [9]: 115 % of control

From PubChem BioAssay AID192 (DTP/NCI, 2004)
